Source: the NIST ThermoML archive (doi:10.1021/je900503p)
± gives the expanded uncertainty stated by the source.

What was measured:
[1] = refractive index (Na D-line) (dimensionless); xn = mol fraction of the nth substance listed; details: 101 kPa, Liquid
[2] = relative permittivity at zero frequency (dimensionless); xn = mol fraction of the nth substance listed; details: 101 kPa, Liquid, Dekameter
[3] = xn = mol fraction of the nth substance listed; details: 101 kPa, Liquid

Compound: O=C1CCCO1 [γ-butyrolactone] + CCCCO
- refractive index ([1]; 293.15 K, x1 = 0.1098): 1.4026 ± 0.0012
- refractive index ([1]; 293.15 K, x1 = 0.2154): 1.4063 ± 0.0012
- refractive index ([1]; 293.15 K, x1 = 0.3009): 1.4096 ± 0.0012
- refractive index ([1]; 293.15 K, x1 = 0.4127): 1.4136 ± 0.0012
- refractive index ([1]; 293.15 K, x1 = 0.5088): 1.4172 ± 0.0012
- refractive index ([1]; 293.15 K, x1 = 0.6124): 1.4213 ± 0.0012
- refractive index ([1]; 293.15 K, x1 = 0.7001): 1.4247 ± 0.0012
- refractive index ([1]; 293.15 K, x1 = 0.8133): 1.4294 ± 0.0013
- refractive index ([1]; 293.15 K, x1 = 0.9078): 1.4332 ± 0.0013
- refractive index ([1]; 298.15 K, x1 = 0.1098): 1.4014 ± 0.0012
- refractive index ([1]; 298.15 K, x1 = 0.2154): 1.4051 ± 0.0012
- refractive index ([1]; 298.15 K, x1 = 0.3009): 1.4083 ± 0.0012
- refractive index ([1]; 298.15 K, x1 = 0.4127): 1.4124 ± 0.0012
- refractive index ([1]; 298.15 K, x1 = 0.5088): 1.416 ± 0.0012
- refractive index ([1]; 298.15 K, x1 = 0.6124): 1.42 ± 0.0012
- refractive index ([1]; 298.15 K, x1 = 0.7001): 1.4234 ± 0.0012
- refractive index ([1]; 298.15 K, x1 = 0.8133): 1.4279 ± 0.0013
- refractive index ([1]; 298.15 K, x1 = 0.9078): 1.4316 ± 0.0013
- refractive index ([1]; 303.15 K, x1 = 0.1098): 1.4 ± 0.0012
- refractive index ([1]; 303.15 K, x1 = 0.2154): 1.4038 ± 0.0012
- refractive index ([1]; 303.15 K, x1 = 0.3009): 1.407 ± 0.0012
- refractive index ([1]; 303.15 K, x1 = 0.4127): 1.4111 ± 0.0012
- refractive index ([1]; 303.15 K, x1 = 0.5088): 1.4147 ± 0.0012
- refractive index ([1]; 303.15 K, x1 = 0.6124): 1.4186 ± 0.0012
- refractive index ([1]; 303.15 K, x1 = 0.7001): 1.4219 ± 0.0012
- refractive index ([1]; 303.15 K, x1 = 0.8133): 1.4263 ± 0.0013
- refractive index ([1]; 303.15 K, x1 = 0.9078): 1.43 ± 0.0013
- refractive index ([1]; 313.15 K, x1 = 0.1098): 1.3973 ± 0.0012
- refractive index ([1]; 313.15 K, x1 = 0.2154): 1.4013 ± 0.0012
- refractive index ([1]; 313.15 K, x1 = 0.3009): 1.4044 ± 0.0012
- refractive index ([1]; 313.15 K, x1 = 0.4127): 1.4085 ± 0.0012
- refractive index ([1]; 313.15 K, x1 = 0.5088): 1.4121 ± 0.0012
- refractive index ([1]; 313.15 K, x1 = 0.6124): 1.4158 ± 0.0012
- refractive index ([1]; 313.15 K, x1 = 0.7001): 1.4192 ± 0.0012
- refractive index ([1]; 313.15 K, x1 = 0.8133): 1.4232 ± 0.0013
- refractive index ([1]; 313.15 K, x1 = 0.9078): 1.4267 ± 0.0013
- relative permittivity at zero frequency ([2]; 293.15 K, x1 = 0.1098): 20.68 ± 0.06
- relative permittivity at zero frequency ([2]; 293.15 K, x1 = 0.2154): 22.37 ± 0.06
- relative permittivity at zero frequency ([2]; 293.15 K, x1 = 0.3009): 23.98 ± 0.06
- relative permittivity at zero frequency ([2]; 293.15 K, x1 = 0.4127): 26.17 ± 0.06
- relative permittivity at zero frequency ([2]; 293.15 K, x1 = 0.5088): 28.44 ± 0.06
- relative permittivity at zero frequency ([2]; 293.15 K, x1 = 0.6124): 31.29 ± 0.06
- relative permittivity at zero frequency ([2]; 293.15 K, x1 = 0.7001): 33.79 ± 0.06
- relative permittivity at zero frequency ([2]; 293.15 K, x1 = 0.8133): 37.12 ± 0.06
- relative permittivity at zero frequency ([2]; 293.15 K, x1 = 0.9078): 40.02 ± 0.06
- relative permittivity at zero frequency ([2]; 298.15 K, x1 = 0.1098): 19.61 ± 0.06
- relative permittivity at zero frequency ([2]; 298.15 K, x1 = 0.2154): 21.23 ± 0.06
- relative permittivity at zero frequency ([2]; 298.15 K, x1 = 0.3009): 22.55 ± 0.06
- relative permittivity at zero frequency ([2]; 298.15 K, x1 = 0.4127): 24.92 ± 0.06
- relative permittivity at zero frequency ([2]; 298.15 K, x1 = 0.5088): 27.23 ± 0.06
- relative permittivity at zero frequency ([2]; 298.15 K, x1 = 0.6124): 29.79 ± 0.06
- relative permittivity at zero frequency ([2]; 298.15 K, x1 = 0.7001): 32.21 ± 0.06
- relative permittivity at zero frequency ([2]; 298.15 K, x1 = 0.8133): 36.01 ± 0.06
- relative permittivity at zero frequency ([2]; 298.15 K, x1 = 0.9078): 39.13 ± 0.06
- relative permittivity at zero frequency ([2]; 303.15 K, x1 = 0.1098): 18.57 ± 0.06
- relative permittivity at zero frequency ([2]; 303.15 K, x1 = 0.2154): 19.99 ± 0.06
- relative permittivity at zero frequency ([2]; 303.15 K, x1 = 0.3009): 21.61 ± 0.06
- relative permittivity at zero frequency ([2]; 303.15 K, x1 = 0.4127): 23.88 ± 0.06
- relative permittivity at zero frequency ([2]; 303.15 K, x1 = 0.5088): 26.16 ± 0.06
- relative permittivity at zero frequency ([2]; 303.15 K, x1 = 0.6124): 28.82 ± 0.06
- relative permittivity at zero frequency ([2]; 303.15 K, x1 = 0.7001): 31.34 ± 0.06
- relative permittivity at zero frequency ([2]; 303.15 K, x1 = 0.8133): 35.03 ± 0.06
- relative permittivity at zero frequency ([2]; 303.15 K, x1 = 0.9078): 38.46 ± 0.06
- relative permittivity at zero frequency ([2]; 313.15 K, x1 = 0.1098): 16.65 ± 0.06
- relative permittivity at zero frequency ([2]; 313.15 K, x1 = 0.2154): 18.16 ± 0.06
- relative permittivity at zero frequency ([2]; 313.15 K, x1 = 0.3009): 19.99 ± 0.06
- relative permittivity at zero frequency ([2]; 313.15 K, x1 = 0.4127): 22.01 ± 0.06
- relative permittivity at zero frequency ([2]; 313.15 K, x1 = 0.5088): 24.43 ± 0.06
- relative permittivity at zero frequency ([2]; 313.15 K, x1 = 0.6124): 26.76 ± 0.06
- relative permittivity at zero frequency ([2]; 313.15 K, x1 = 0.7001): 29.25 ± 0.06
- relative permittivity at zero frequency ([2]; 313.15 K, x1 = 0.8133): 33.05 ± 0.06
- relative permittivity at zero frequency ([2]; 313.15 K, x1 = 0.9078): 36.56 ± 0.06
- mass density ([3]; 293.15 K, x1 = 0.0786): 831.12 ± 0.41 kg/m3
- mass density ([3]; 293.15 K, x1 = 0.1555): 852.82 ± 0.39 kg/m3
- mass density ([3]; 293.15 K, x1 = 0.2466): 879.28 ± 0.36 kg/m3
- mass density ([3]; 293.15 K, x1 = 0.2901): 892.18 ± 0.34 kg/m3
- mass density ([3]; 293.15 K, x1 = 0.3664): 915.23 ± 0.32 kg/m3
- mass density ([3]; 293.15 K, x1 = 0.4332): 935.89 ± 0.3 kg/m3
- mass density ([3]; 293.15 K, x1 = 0.4988): 956.54 ± 0.29 kg/m3
- mass density ([3]; 293.15 K, x1 = 0.5616): 976.71 ± 0.27 kg/m3
- mass density ([3]; 293.15 K, x1 = 0.6336): 1000.34 ± 0.26 kg/m3
- mass density ([3]; 293.15 K, x1 = 0.7033): 1023.73 ± 0.31 kg/m3
- mass density ([3]; 293.15 K, x1 = 0.7956): 1055.39 ± 0.39 kg/m3
- mass density ([3]; 293.15 K, x1 = 0.8654): 1080.09 ± 0.46 kg/m3
- mass density ([3]; 293.15 K, x1 = 0.9334): 1104.36 ± 0.52 kg/m3
- mass density ([3]; 293.15 K, x1 = 0.9888): 1124.69 ± 0.58 kg/m3
- mass density ([3]; 298.15 K, x1 = 0.0786): 827.22 ± 0.42 kg/m3
- mass density ([3]; 298.15 K, x1 = 0.1555): 848.94 ± 0.39 kg/m3
- mass density ([3]; 298.15 K, x1 = 0.2466): 875.32 ± 0.36 kg/m3
- mass density ([3]; 298.15 K, x1 = 0.2901): 888.19 ± 0.35 kg/m3
- mass density ([3]; 298.15 K, x1 = 0.3664): 911.2 ± 0.33 kg/m3
- mass density ([3]; 298.15 K, x1 = 0.4332): 931.77 ± 0.31 kg/m3
- mass density ([3]; 298.15 K, x1 = 0.4988): 952.35 ± 0.29 kg/m3
- mass density ([3]; 298.15 K, x1 = 0.5616): 972.46 ± 0.28 kg/m3
- mass density ([3]; 298.15 K, x1 = 0.6336): 996.03 ± 0.26 kg/m3
- mass density ([3]; 298.15 K, x1 = 0.7033): 1019.35 ± 0.31 kg/m3
- mass density ([3]; 298.15 K, x1 = 0.7956): 1050.92 ± 0.38 kg/m3
- mass density ([3]; 298.15 K, x1 = 0.8654): 1075.34 ± 0.45 kg/m3
- mass density ([3]; 298.15 K, x1 = 0.9334): 1099.62 ± 0.51 kg/m3
- mass density ([3]; 298.15 K, x1 = 0.9888): 1119.77 ± 0.57 kg/m3
- mass density ([3]; 303.15 K, x1 = 0.0786): 823.57 ± 0.42 kg/m3
- mass density ([3]; 303.15 K, x1 = 0.1555): 845.28 ± 0.4 kg/m3
- mass density ([3]; 303.15 K, x1 = 0.2466): 871.63 ± 0.37 kg/m3
- mass density ([3]; 303.15 K, x1 = 0.2901): 884.43 ± 0.35 kg/m3
- mass density ([3]; 303.15 K, x1 = 0.3664): 907.36 ± 0.33 kg/m3
- mass density ([3]; 303.15 K, x1 = 0.4332): 927.87 ± 0.31 kg/m3
- mass density ([3]; 303.15 K, x1 = 0.4988): 948.38 ± 0.3 kg/m3
- mass density ([3]; 303.15 K, x1 = 0.5616): 968.43 ± 0.28 kg/m3
- mass density ([3]; 303.15 K, x1 = 0.6336): 991.92 ± 0.27 kg/m3
- mass density ([3]; 303.15 K, x1 = 0.7033): 1015.09 ± 0.3 kg/m3
- mass density ([3]; 303.15 K, x1 = 0.7956): 1046.55 ± 0.37 kg/m3
- mass density ([3]; 303.15 K, x1 = 0.8654): 1070.81 ± 0.44 kg/m3
- mass density ([3]; 303.15 K, x1 = 0.9334): 1094.88 ± 0.51 kg/m3
- mass density ([3]; 303.15 K, x1 = 0.9888): 1114.92 ± 0.55 kg/m3
- mass density ([3]; 313.15 K, x1 = 0.0786): 816.82 ± 0.44 kg/m3
- mass density ([3]; 313.15 K, x1 = 0.1555): 839.3 ± 0.41 kg/m3
- mass density ([3]; 313.15 K, x1 = 0.2466): 866.62 ± 0.38 kg/m3
- mass density ([3]; 313.15 K, x1 = 0.2901): 879.94 ± 0.36 kg/m3
- mass density ([3]; 313.15 K, x1 = 0.3664): 903.64 ± 0.34 kg/m3
- mass density ([3]; 313.15 K, x1 = 0.4332): 924.87 ± 0.32 kg/m3
- mass density ([3]; 313.15 K, x1 = 0.4988): 946.17 ± 0.3 kg/m3
- mass density ([3]; 313.15 K, x1 = 0.5616): 966.89 ± 0.29 kg/m3
- mass density ([3]; 313.15 K, x1 = 0.6336): 991.1 ± 0.27 kg/m3
- mass density ([3]; 313.15 K, x1 = 0.7033): 1015.08 ± 0.3 kg/m3
- mass density ([3]; 313.15 K, x1 = 0.7956): 1047.44 ± 0.38 kg/m3
- mass density ([3]; 313.15 K, x1 = 0.8654): 1072.54 ± 0.44 kg/m3
- mass density ([3]; 313.15 K, x1 = 0.9334): 1097.32 ± 0.51 kg/m3
- mass density ([3]; 313.15 K, x1 = 0.9888): 1118.1 ± 0.57 kg/m3
